From patent publication US9981928B2, “Aryl sulfide derivatives and aryl sulfoxide derivatives as acaricides and insecticides” (BAYER CROPSCIENCE AKTIENGESELLSCHAFT, priority 2013, dated 2018) come the findings set out here.

Where two headings read alike, the source gives them in different places.

Data set [1] is described as follows: log P determination by HPLC on reversed-phase columns (C 18), analogously to OECD Guideline 117. Format: physicochemical. As to conditions: for logP (HCOOH): LC-MS in the acidic range, pH 2.7, 0.1% aqueous formic acid / acetonitrile; for logP (HCOOH) / logP (neutral): HPLC reversed-phase C 18; for logP (neutral): LC-MS in the neutral range, pH 7.8, 0.001 molar aqueous ammonium hydrogencarbonate / acetonitrile; for chromatographic logP: reversed-phase C18 HPLC column. An outline of the steps:
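Reversed-phase C18 HPLC per OECD 117 with LC-MS detection and a linear 10→95% acetonitrile gradient. Acidic log P run at pH 2.7 with 0.1% formic acid in both eluents. Neutral log P run at pH 7.8 with 0.001 M aqueous ammonium hydrogencarbonate.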

Data set [2] has as its system greenhouse red spider mite (Tetranychus urticae). Description: Tetranychus urticae spray test, OP-resistant (TETRUR), bean leaf disks. Format: in vivo. Particulars: bean leaf disks, application rate 500 g/ha, after 6 days; for pest or weed control at 500 g/ha: Tetranychus urticae, foliar, 144 h, read-out: efficacy in %. Summed up: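 Bean leaf disks carrying all stages of OP-resistant Tetranychus urticae sprayed with compound in acetone/dimethylformamide diluted in emulsifier water. Kill assessed after 6 days as % efficacy, 100% meaning all mites dead.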

The subject of data set [3] is southern root-knot nematode (Meloidogyne incognita). The data set is described as follows: Meloidogyne incognita test (MELGIN). Format: in vivo. As to conditions: lettuce in sand; application rate 20 ppm; after 14 days. On the procedure: Meloidogvne incognita test (MELGIN)
Solvent: 125.0 parts by weight of acetone
To produce a suitable preparation of active compound, 1 part by weight of active compound is mixed with the stated amount of solvent and the concentrate is diluted with water to the desired concentration.
Vessels are filled with sand, active compound solution, an egg/larvae suspension of the southern root-knot nematode (Meloidogyne incognita) and lettuce seeds. The lettuce seeds germinate and the plants develop. The galls develop on the roots.
After 14 days, the nematicidal efficacy in % is determined by the formation of galls. 100% means that no galls were found; 0% means that the number of galls on the treated plants corresponds to the untreated control.

Setting [4] is: acidic range, pH 2.7, 0.1% aqueous formic acid and acetonitrile, read-out: log P[a] / log P(HCOOH).
[5] abbreviates: neutral range, pH 7.8, 0.001 molar aqueous ammonium hydrogencarbonate and acetonitrile, read-out: log P[b] / log P(neutral).

On to `CCn1c(=O)n(C)n(-c2cc(SCC(F)(F)F)c(C)cc2F)c1=O` [Example 83], for which, in data set [1], the “logP (HCOOH)” value is recorded as 2.92 and the “logP (neutral)” value turned out to be 2.88. The same compound registered an efficacy in % in data set [2] of 100%. Moreover, in data set [3], the “nematicidal efficacy in % (formation of galls)” value (shortened to “nematicidal efficacy in %”) amounted to 100%.

Consider `Cn1c(=O)n(C2CC2)c(=O)n1-c1ccc(Br)c([S+]([O-])CC(F)(F)F)c1` (stereo not drawn) [Example 45], for which, in data set [1], the “logP (HCOOH)” value amounted to 2.27 and the “logP (neutral)” value amounted to 2.24. The “nematicidal efficacy in %” value in data set [3] was 90%.

In the case of `Cn1c(=O)n(C)n(-c2cc([S+]([O-])CC(F)(F)F)c(Cl)cc2F)c1=O` (stereo not drawn) [Example 29], in data set [1], the “logP (HCOOH)” value was found to be 1.93 and the “logP (neutral)” value came to 1.91. Moreover, the efficacy in % in data set [2] is 90%. In data set [3], the “nematicidal efficacy in %” value is 90%.

With `Cn1c(=O)n(C2CC2)c(=O)n1-c1cc([S+]([O-])CC(F)(F)F)c(Cl)cc1F` (stereo not drawn) [Example 38], in data set [1], the “logP (HCOOH)” value was determined as 2.18 and the “logP (neutral)” value was 2.16. Further, in data set [2], the efficacy in % is on record as 100%. The “nematicidal efficacy in %” value in data set [3] is given as 100%.

Consider `COc1ccc(-n2c(=O)n(C3CC3)c(=O)n2C)cc1[S+]([O-])CC(F)(F)F` (stereo not drawn) [Example 41], for which, in data set [1], the “logP (HCOOH)” value was 1.77 and the “logP (neutral)” value is 1.75. The compound further gave an efficacy in % in data set [2] of 90%. In data set [3], the “nematicidal efficacy in %” value came to 90%.

Consider `Cc1ccc(-n2c(=O)n(C)c(=O)n2C)cc1SCC(F)(F)F` [Example 20, 1,4-Dimethyl-2-{4-methyl-3-[(2,2,2-trifluoroethyl)sulfanyl]phenyl}-1,2,4-triazolidine-3,5-dione], for which the chromatographic logP in data set [1] (setting [4]) was 2.59; in data set [1] (setting [5]), 2.58. Also, the pest or weed control at 500 g/ha in data set [2] stood at 100%. Further, in data set [3], the “nematicidal efficacy in %” value came to 90%.

For `Cn1c(=O)n(C)n(-c2cc([S+]([O-])CC(F)(F)F)c(F)cc2F)c1=O` (stereo not drawn) [Example 70], in data set [1], the “logP (HCOOH)” value was determined as 1.64 and the “logP (neutral)” value was 1.59. In addition, the “nematicidal efficacy in %” value in data set [3] came to 90%.

For the compound `Cc1cc(C)c([S+]([O-])CC(F)(F)F)cc1-n1c(=O)n(C)c(=O)n1C` (stereo not drawn) [Example 33], in data set [1], the “logP (HCOOH)” value is reported as 1.75 and the “logP (neutral)” value is 1.70. The compound also had an efficacy in % in data set [2] of 90%. In data set [3], the “nematicidal efficacy in %” value is recorded as 90%.

Regarding `Cn1c(=O)n(C)n(-c2cc([S+]([O-])CC(F)(F)F)c(Br)cc2F)c1=O` (stereo not drawn) [Example 69], in data set [1], the “logP (HCOOH)” value is recorded as 2.01 and the “logP (neutral)” value worked out at 1.98. Further, in data set [3], the “nematicidal efficacy in %” value is listed as 90%.

As to `Cc1cc(F)c(-n2c(=O)n(C3CC3)c(=S)n2C)cc1SCC(F)(F)F` [Example 181, 4-Cyclopropyl-2-{2-fluoro-4-methyl-5-[(2,2,2-trifluoroethyl)sulfanyl]phenyl}-1-methyl-5-thioxo-1,2,4-triazolidin-3-one], the chromatographic logP was determined as 3.44 in data set [1] (setting [4]) and 3.39 in data set [1] (setting [5]). The pest or weed control at 500 g/ha in data set [2] came out at 90%. Further, the “nematicidal efficacy in %” value in data set [3] came to 90%.

As to `Cc1cc(F)c(N2C(=O)C3(CCC3)C(=O)N2C)cc1SCC(F)(F)F` [Example 179], in data set [1], the “logP (HCOOH)” value was 3.00 and the “logP (neutral)” value worked out at 2.96. The same compound gave an efficacy in % in data set [2] of 100%. The “nematicidal efficacy in %” value in data set [3] came out at 90%.

Turning to `Cc1ccc(-n2c(=O)n(C3CC3)c(=O)n2C)cc1SCC(F)(F)F` [Example 36], in data set [1], the “logP (HCOOH)” value amounted to 2.89 and the “logP (neutral)” value is given as 2.87. The compound further returned an efficacy in % in data set [2] of 100%. For the same compound, the “nematicidal efficacy in %” value in data set [3] came out at 100%.

For `CCn1c(=O)n(C2CC2)c(=O)n1-c1cc(SCC(F)(F)F)c(C)cc1F` [Example 127], in data set [1], the “logP (HCOOH)” value stood at 3.19 and the “logP (neutral)” value is 3.17. In data set [2], this compound registered an efficacy in % of 100%. Further, in data set [3], the “nematicidal efficacy in %” value was 90%.

With `Cn1c(=O)n(C2CC2)c(=O)n1-c1ccc(C#N)c(SCC(F)(F)F)c1` [Example 44], in data set [1], the “logP (HCOOH)” value came to 2.53 and the “logP (neutral)” value was found to be 2.45. In data set [3], the “nematicidal efficacy in %” value is listed as 90%.

As to `COc1ccc(-n2c(=O)n(C3CC3)c(=O)n2C)cc1SCC(F)(F)F` [Example 42], in data set [1], the “logP (HCOOH)” value was determined as 2.51 and the “logP (neutral)” value turned out to be 2.46. This compound also registered an efficacy in % in data set [2] of 100%. Besides, in data set [3], the “nematicidal efficacy in %” value worked out at 90%.

Take `Cc1cc(F)c(N2C(=O)C(C)(C)C(=O)N2C)cc1[S+]([O-])CC(F)(F)F` (stereo not drawn) [Example 177, 1-{2-Fluoro-4-methyl-5-[(2,2,2-trifluoroethyl)sulfinyl]phenyl}-2,4,4-trimethylpyrazolidine-3,5-dione]: the values for the chromatographic logP in data set [1] (setting [4]) and in data set [1] (setting [5]) were 1.89 and 1.85, respectively. In addition, the pest or weed control at 500 g/ha in data set [2] worked out at 90%. Also, the “nematicidal efficacy in %” value in data set [3] was 90%.

For the compound `Cc1cc(F)c(N2C(=O)C(=O)N(CC(C)(C)C)C2=S)cc1[S+]([O-])CC(F)(F)F` (stereo not drawn) [Example 195], in data set [1], the “logP (HCOOH)” value was found to be 3.85 and the “logP (neutral)” value came out at 3.79. In data set [2], the efficacy in % came out at 90%.

With `Cc1cc(F)c(N2C(=O)CSC2=NCC(C)(C)C)cc1[S+]([O-])CC(F)(F)F` (racemic) [Example 114], in data set [1], the “logP (HCOOH)” value is 3.66 and the “logP (neutral)” value was 3.63. For the same compound, the efficacy in % in data set [2] came out at 90%.

In the case of `Cc1cc(F)c(N2CCCC2=NCC(F)(F)F)cc1[S+]([O-])CC(F)(F)F` (stereo not drawn) [Example 3, 2,2,2-Trifluoro-N-(1-{2-fluoro-4-methyl-5-[(2,2,2-trifluoroethyl)sulfinyl]phenyl}pyrrolidin-2-ylidene)ethanamine], the chromatographic logP in data set [1] (setting [4]) came out at 1.02; in data set [1] (setting [5]), 2.88. Also, in data set [2], the pest or weed control at 500 g/ha was 90%.

As to `Cc1cc(F)c(-n2c(=O)n(C3CC3)c(=O)n2CC(F)(F)F)cc1SCC(F)(F)F` [Example 129], in data set [1], the “logP (HCOOH)” value worked out at 3.48 and the “logP (neutral)” value stood at 3.43. Also, in data set [2], the efficacy in % is 100%.

Consider `C=CCn1c(=O)n(C)c(=O)n1-c1ccc(C)c([S+]([O-])CC(F)(F)F)c1` (stereo not drawn) [Example 59], for which, in data set [1], the “logP (HCOOH)” value was determined as 2.03 and the “logP (neutral)” value was 2.00. Moreover, the efficacy in % in data set [2] came to 100%.

As to `Cc1cc(F)c(-n2c(=O)n(C3CC3)c(=O)n2C)cc1[S+]([O-])CC(F)(F)F` (single isomer, unassigned) [Example 151], in data set [1], the “logP (HCOOH)” value was determined as 1.98 and the “logP (neutral)” value came to 1.88. Moreover, the efficacy in % in data set [2] is listed as 90%.

As for `Cc1cc(F)c(-n2c(=O)n(C)n(C)c2=O)cc1[S+]([O-])CC(F)(F)F` (stereo not drawn) [Example 117, 4-{2-Fluoro-4-methyl-5-[(2,2,2-trifluoroethyl)sulfinyl]phenyl}-1,2-dimethyl-1,2,4-triazolidine-3,5-dione], the results for the chromatographic logP in data set [1] (setting [4]) and in data set [1] (setting [5]) were 1.54 and 1.5, respectively. Further, in data set [2], the pest or weed control at 500 g/ha was found to be 90%.

Regarding `Cc1cc(F)c(-n2c(=O)n(-c3cccc(C(F)(F)F)c3)c(=O)n2C)cc1SCC(F)(F)F` [Example 76], in data set [1], the “logP (HCOOH)” value came out at 4.09 and the “logP (neutral)” value is 3.94. This compound also registered an efficacy in % in data set [2] of 100%.

`Cc1cc(F)c(N2CCNC2=O)cc1SCC(F)(F)F` [Example 9, 1-{2-Fluoro-4-methyl-5-[(2,2,2-trifluoroethyl)sulfanyl]phenyl}imidazolidin-2-one]: the results for the chromatographic logP in data set [1] (setting [4]) and in data set [1] (setting [5]) were 2.36 and 2.31, respectively. Also, the pest or weed control at 500 g/ha in data set [2] stood at 90%.

On to `Cc1cc(F)c(N2CCN(C)C2=O)cc1[S+]([O-])CC(F)(F)F` (racemic) [Example 199], for which, in data set [1], the “logP (HCOOH)” value was found to be 1.76 and the “logP (neutral)” value stood at 1.74. For the same compound, the efficacy in % in data set [2] is on record as 100%.

For `Cc1cc(F)c(N2C(=O)CCC2=O)cc1SCC(F)(F)F` [Example 19, 1-{2-Fluoro-4-methyl-5-[(2,2,2-trifluoroethyl)sulfanyl]phenyl}pyrrolidine-2,5-dione], the chromatographic logP in data set [1] (setting [4]) stood at 2.52; in data set [1] (setting [5]), 2.45. Besides, in data set [2], the pest or weed control at 500 g/ha worked out at 100%.

Take `Cc1cc(F)c(-n2c(=S)n(C3CC3)c(=S)n2C)cc1SCC(F)(F)F` [Example 182, 4-cyclopropyl-1-{2-fluoro-4-methyl-5-[(2,2,2-trifluoroethyl)sulfanyl]phenyl}-2-methyl-1,2,4-triazolidine-3,5-dithione]: the figures for the chromatographic logP in data set [1] (setting [4]) and in data set [1] (setting [5]) were 3.83 and 3.76, respectively. The “nematicidal efficacy in %” value in data set [3] amounted to 90%.

With `Cc1ccc(-n2c(=O)n(C(C)C)c(=O)n2C)cc1SCC(F)(F)F` [Example 132], in data set [1], the “logP (HCOOH)” value came out at 3.42 and the “logP (neutral)” value came out at 3.38. For the same compound, the efficacy in % in data set [2] is given as 100%.
